Measured values taken from patent publication US8173689B2 (Novartis AG, priority 2006, dated 2012).
Where two headings read alike, the source gives them in different places.

Tests used:
[1] = target: T1, kinase domain of PDGFRβ (Homo sapiens, UniProt P09619); test: Inhibition of PDGFRb kinase signaling in an in vitro biochemical assay (alphascreen); conditions: tested at about 1 μM, read-out: PDGFRβ percent inhibition
T1 construct: The kinase domain of PDGFRβ was assayed in 50 mM Hepes; purchased Invitrogen P3082

[2] = test system: MNFS60 (murine AML cells); test: Cell viability assay in MCSF dependent MNFS60 cells (Cell Titer Glo); format: cell-based; conditions: Mus musculus, tested at about 1 μM, read-out: M-NFS-60 CP percent inhibition
Procedure: Cell viability was assessed by Cell Titer Glo, Promega. […] Test compounds were serially diluted (3 fold) in DMSO to 500× the final concentration. […] Final concentration of MCSF is 10 ng/ml. Cells were incubated for 72 hrs at 37° C., 5% CO2. After the incubation 100 μl Cell Titer Glo is added to each well to determine viable cells. The assay was performed according to the manufacturer's instruction (Promega Corporation, Madison, Wis. USA). Each experimental condition was performed in triplicate. Raw data was imported in Abase and EC50s calculated with XL-fit data analysis software.

[3] = target: T2, cytoplasmic domain of the human CSF-1R (Homo sapiens, UniProt P07333); test: In vitro kinase assay for colony stimulating factor-1 receptor (AlphaScreen); format: biochemical; conditions: tested at about 1 μM, read-out: CSF-1R percent inhibition
T2 construct: Recombinant protein corresponding to the cytoplasmic domain of the human CSF-1R; purchased Invitrogen Corporation, Carlsbad, Calif; PV3249
T2 sequence (P07333 539-972 limits assumed): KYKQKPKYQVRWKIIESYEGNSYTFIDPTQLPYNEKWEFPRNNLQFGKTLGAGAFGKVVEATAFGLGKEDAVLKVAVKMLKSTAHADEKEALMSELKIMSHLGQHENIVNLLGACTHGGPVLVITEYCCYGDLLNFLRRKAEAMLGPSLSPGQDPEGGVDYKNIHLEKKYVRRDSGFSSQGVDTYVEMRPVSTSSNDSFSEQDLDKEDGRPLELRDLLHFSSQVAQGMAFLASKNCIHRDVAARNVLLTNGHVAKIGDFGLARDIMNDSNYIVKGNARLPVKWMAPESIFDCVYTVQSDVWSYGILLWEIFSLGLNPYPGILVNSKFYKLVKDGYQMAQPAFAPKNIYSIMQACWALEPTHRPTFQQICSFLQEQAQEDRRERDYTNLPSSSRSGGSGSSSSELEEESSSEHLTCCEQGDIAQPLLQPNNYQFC
Method in brief: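 At a low ATP level of 1 μM, phosphate transfer by the cytoplasmic-domain kinase (4 nM) was quantified with an AlphaScreen anti-phosphotyrosine bead pair.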

[4] = target: T3, kinase domain of cKIT (Homo sapiens, UniProt P10721); test: Inhibition of cKIT kinase signaling in an in vitro biochemical assay (alphascreen); conditions: tested at about 1 μM, read-out: cKit percent inhibition
T3 construct: The kinase domain of cKIT was assayed in 50 mM Hepes; purchased Upstate 14-559
T3 sequence (P10721 589-937 limits assumed): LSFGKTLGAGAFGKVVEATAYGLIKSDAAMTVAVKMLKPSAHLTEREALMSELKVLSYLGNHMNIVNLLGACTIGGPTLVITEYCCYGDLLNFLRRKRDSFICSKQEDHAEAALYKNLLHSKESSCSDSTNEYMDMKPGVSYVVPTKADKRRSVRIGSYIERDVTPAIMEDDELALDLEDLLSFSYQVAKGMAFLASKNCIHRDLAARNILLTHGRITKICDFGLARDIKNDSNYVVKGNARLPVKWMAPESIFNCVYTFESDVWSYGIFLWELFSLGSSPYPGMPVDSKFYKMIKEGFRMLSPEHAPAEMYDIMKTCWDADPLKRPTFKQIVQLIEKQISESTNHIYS

T1 sequence (P09619 600-962 limits assumed): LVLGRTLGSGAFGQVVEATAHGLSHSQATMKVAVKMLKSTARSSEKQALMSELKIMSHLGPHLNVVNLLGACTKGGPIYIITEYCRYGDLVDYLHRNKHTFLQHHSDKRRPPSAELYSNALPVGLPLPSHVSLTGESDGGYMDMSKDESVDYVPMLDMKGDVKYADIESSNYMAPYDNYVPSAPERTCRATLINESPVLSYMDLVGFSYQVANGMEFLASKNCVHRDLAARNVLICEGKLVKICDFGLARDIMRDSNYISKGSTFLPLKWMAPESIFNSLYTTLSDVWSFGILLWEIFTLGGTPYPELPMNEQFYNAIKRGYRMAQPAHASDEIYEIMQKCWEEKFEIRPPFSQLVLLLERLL

Compound: O[C@@H]1CCCC[C@H]1Nc1nc2ccc(Oc3ccnc(N4CCOCC4)c3)cc2s1 [Cmpd 175, (1R,2R)-2-(6-(2-morpholinopyridin-4-yloxy)benzo[d]thiazol-2-ylamino)cyclohexanol]
- inhibition at 1 µM ([1]; compounds of Table 3): 1%
- inhibition at 1 µM ([2]; compounds of Table 3): 17%
- inhibition at 1 µM ([3]; compounds of Table 3): 100%
- inhibition at 1 µM ([4]; compounds of Table 3): 11%

Compound: CNC(=O)c1cc(Oc2ccc3nc(NCc4ccc(OC)cc4OC)oc3c2)ccn1 [Compound 92, 4-[2-(2,4-Dimethoxy-benzyl-amino)-benzooxazol-6-yloxy]-pyridine-2-carboxylic acid methylamide]
- inhibition at 1 µM ([2]; MNFS60 cells): 17%
- inhibition at 1 µM [3]: 99%
- inhibition at 1 µM [4]: 98%

Compound: CC[C@@H](Nc1nc2ccc(Oc3ccnc(C(=O)NC)c3)cc2o1)c1ccccc1 [Compound 19, 4-[2-((R)-1-Phenyl-propyl-amino)-benzooxazol-6-yloxy]-pyridine-2-carboxylic acid methylamide]
- inhibition at 1 µM [1]: 2%
- inhibition at 1 µM ([2]; MNFS60 cells): 36%
- inhibition at 1 µM [3]: 100%

Compound: CNC(=O)c1cc(Oc2ccc3nc(Nc4ccccc4)oc3c2)ccn1 [Compound 26, 4-(2-Phenylamino-benzooxazol-6-yloxy)-pyridine-2-carboxylic acid methylamide]
- inhibition at 1 µM [1]: 100%
- inhibition at 1 µM ([2]; MNFS60 cells): 24%
- inhibition at 1 µM [3]: 98%

Compound: CNC(=O)c1cc(Oc2ccc3nc(Nc4ccccc4-c4cnco4)oc3c2)ccn1 [Compound 46, 4-[2-(2-Oxazol-5-yl-phenylamino)-benzooxazol-6-yloxy]-pyridine-2-carboxylic acid methylamide]
- inhibition at 1 µM [1]: 15%
- inhibition at 1 µM ([2]; MNFS60 cells): 1%
- inhibition at 1 µM [3]: 94%

Compound: CNC(=O)c1cc(Oc2ccc3nc(NCc4ccccn4)oc3c2)ccn1 [Compound 40, 4-{2-[(Pyridin-2-ylmethyl)-amino]-benzooxazol-6-yloxy}-pyridine-2-carboxylic acid methylamide]
- inhibition at 1 µM [1]: 6%
- inhibition at 1 µM ([2]; MNFS60 cells): 0%
- inhibition at 1 µM [3]: 99%

Compound: CNC(=O)c1cc(Oc2ccc3nc(Nc4ccc(Br)cc4)oc3c2)ccn1 [Compound 1, 4-[2-(4-Bromo-phenylamino)-benzooxazol-6-yloxy]-pyridine-2-carboxylic acid methylamide]
- inhibition at 1 µM ([2]; MNFS60 cells): 21%
- inhibition at 1 µM [3]: 99%

Compound: CC(=O)Nc1cc(Oc2ccc3nc(NC4CCCCC4)oc3c2)ccn1 [Compound 29, N-[4-(2-Cyclohexylamino-benzooxazol-6-yloxy)-pyridin-2-yl]-acetamide]
- inhibition at 1 µM [1]: 51%
- inhibition at 1 µM ([2]; MNFS60 cells): 0%
- inhibition at 1 µM [3]: 99%

Compound: CNC(=O)c1cc(Oc2ccc3nc(NCc4c(F)cccc4F)oc3c2)ccn1 [Compound 87, 4-[2-(2,6-Difluoro-benzylamino)-benzooxazol-6-yloxy]-pyridine-2-carboxylic acid methylamide]
- inhibition at 1 µM ([2]; MNFS60 cells): 21%
- inhibition at 1 µM [3]: 99%
- inhibition at 1 µM [4]: 42%

Compound: CNC(=O)c1cc(Oc2ccc3nc(NCc4ccc(OC)c(OC)c4)oc3c2)ccn1 [Compound 90, 4-[2-(3,4-Dimethoxy-benzyl-amino)-benzooxazol-6-yloxy]-pyridine-2-carboxylic acid methylamide]
- inhibition at 1 µM ([2]; MNFS60 cells): 18%
- inhibition at 1 µM [3]: 99%
- inhibition at 1 µM [4]: 22%

Compound: CNC(=O)c1cc(Oc2ccc3nc(Nc4ccccc4OC)oc3c2)ccn1 [Compound 11, 4-[2-(2-Methoxy-phenylamino)-benzooxazol-6-yloxy]-pyridin-2-carboxylic acid methylamide]
- inhibition at 1 µM [1]: 96%
- inhibition at 1 µM ([2]; MNFS60 cells): 26%
- inhibition at 1 µM [3]: 99%

Compound: CNC(=O)c1cc(Oc2ccc3nc(Nc4ccccc4N4CCOCC4)oc3c2)ccn1 [Compound 3, 4-[2-(2-Morpholin-4-yl-phenylamino)-benzooxazol-6-yloxy]-pyridin-2-carboxylic acid methylamide]
- inhibition at 1 µM ([2]; MNFS60 cells): 0%
- inhibition at 1 µM [3]: 96%

Compound: CCOc1ccccc1Nc1nc2ccc(Oc3ccnc(C(=O)NC)c3)cc2o1 [Compound 12, 4-[2-(2-Ethoxy-phenylamino)-benzooxazol-6-yloxy]-pyridin-2-carboxylic acid methylamide]
- inhibition at 1 µM [1]: 12%
- inhibition at 1 µM ([2]; MNFS60 cells): 30%
- inhibition at 1 µM [3]: 99%

Compound: CNC(=O)c1cc(Oc2ccc3nc(Nc4cccc5c4OCCO5)oc3c2)ccn1 [Compound 94, 4-[2-(2,3-Dihydro-benzo-[1,4]dioxin-5-ylamino)-benzooxazol-6-yloxy]-pyridine-2-carboxylic acid methylamide]
- inhibition at 1 µM ([2]; MNFS60 cells): 28%
- inhibition at 1 µM [3]: 99%
- inhibition at 1 µM [4]: 14%

Compound: CNC(=O)c1cc(Oc2ccc3nc(NC[C@@H](C)O)sc3c2)ccn1 [Compound 99]
- inhibition at 1 µM ([1]; compounds of Table 3): 0%
- inhibition at 1 µM ([3]; compounds of Table 3): 86%
- inhibition at 1 µM ([4]; compounds of Table 3): 0%

Compound: CNC(=O)c1cc(Oc2ccc3nc(N[C@@H](C(=O)NC)C4CCCCC4)oc3c2)ccn1 [Compound 62, 4-{2-[((R)-Cyclohexyl-methylcarbamoyl-methyl)-amino]-benzooxazol-6-yloxy}-pyridine-2-carboxylic acid methylamide]
- inhibition at 1 µM [1]: 5%
- inhibition at 1 µM [3]: 19%
- inhibition at 1 µM [4]: 7%

Compound: CNC(=O)c1cc(Oc2ccc3nc(Nc4ccccc4CCN4CCOCC4)oc3c2)ccn1 [Compound 48, 4-{2-[2-(2-Morpholin-4-yl-ethyl)-phenylamino]-benzo-oxazol-6-yloxy}-pyridine-2-carboxylic acid methylamide]
- inhibition at 1 µM [1]: 0%
- inhibition at 1 µM ([2]; MNFS60 cells): 0%
- inhibition at 1 µM [3]: 84%

Compound: CNC(=O)c1cc(Oc2ccc3nc(NC4CCCCCCC4)sc3c2)ccn1 [Compound 129]
- inhibition at 1 µM ([1]; compounds of Table 3): 99%
- inhibition at 1 µM ([3]; compounds of Table 3): 100%
- inhibition at 1 µM ([4]; compounds of Table 3): 99%

Compound: c1cc(Oc2ccc3nc(NCC4CCCCC4)oc3c2)cc(-c2nnco2)n1 [Compound 81, Cyclohexylmethyl-[6-(2-[1,3,4]oxadiazol-2-yl-pyridin-4-yloxy)-benzooxazol-2-yl]-amine]
- inhibition at 1 µM [1]: 0%
- inhibition at 1 µM [3]: 54%
- inhibition at 1 µM [4]: 16%

Compound: CNC(=O)c1cc(Oc2cc3sc(NCC4CCCCC4)nc3cc2F)ccn1 [Example 379, 4-(2-(cyclohexylmethylamino)-5-fluorobenzo[d]thiazol-6-yloxy)-N-methylpicolinamide]
- inhibition at 1 µM [1]: 36%
- inhibition at 1 µM [3]: 77%
- inhibition at 1 µM [4]: 16%

Compound: CNC(=O)c1cc(Oc2ccc3nc(N[C@H]4CCCC[C@H]4NC(=O)C(C)C)sc3c2)ccn1 [Example 310, 4-(2-((1S,2R)-2-isobutyramidocyclohexyl-amino)benzo[d]thiazol-6-yloxy)-N-methylpicolinamide]
- inhibition at 1 µM [1]: 13%
- inhibition at 1 µM [3]: 15%
- inhibition at 1 µM [4]: 13%

Compound: CCN1CCC[C@H]1CNC(=O)c1cc(Oc2ccc3nc(N[C@@H]4CCCC[C@H]4O)sc3c2)ccn1 [Compound 20]
- inhibition at 1 µM ([1]; compounds of Table 3): 0%
- inhibition at 1 µM ([3]; compounds of Table 3): 76%
- inhibition at 1 µM ([4]; compounds of Table 3): 0%

Compound: CNC(=O)c1cc(Oc2ccc3nc(NC4CCCCC4)oc3c2)ccn1 [Compound 24, 4-(2-Cyclohexylamino-benzooxazol-6-yloxy)-pyridine-2-carboxylic acid methylamide]
- inhibition at 1 µM [1]: 20%
- inhibition at 1 µM ([2]; MNFS60 cells): 12%
- inhibition at 1 µM [3]: 99%

Compound: CNC(=O)c1cc(Oc2ccc3nc(N[C@H]4CCCC[C@H]4NC(C)=O)sc3c2)ccn1 [Example 295, 4-(2-((1S,2R)-2-acetamidocyclohexylamino)benzo[d]thiazol-6-yloxy)-N-methylpicolinamide]
- inhibition at 1 µM ([1]; compounds of Table 3): 0%
- inhibition at 1 µM ([3]; compounds of Table 3): 85%
- inhibition at 1 µM ([4]; compounds of Table 3): 5%

Compound: CNC(=O)c1cc(Oc2ccc3nc(NC(C)(C)C)oc3c2)ccn1 [Compound 100, 4-(2-tert-Butylamino-benzo-oxazol-6-yloxy)-pyridine-2-carboxylic acid methylamide]
- inhibition at 1 µM [1]: 9%
- inhibition at 1 µM [3]: 99%
- inhibition at 1 µM [4]: 10%

Compound: CNC(=O)c1cc(Oc2ccc3nc(Nc4ccc(Cl)c(C(F)(F)F)c4)sc3c2)ccn1 [Compound 126, 4-[2-(4-Chloro-3-trifluoromethyl-phenylamino)-benzothiazol-6-yloxy]-pyridine-2-carboxylic acid methylamide]
- inhibition at 1 µM [1]: 99%
- inhibition at 1 µM [3]: 68%
- inhibition at 1 µM [4]: 83%
